Results on five compounds are retold here after patent US20080113969A1, “COMBINATION THERAPY FOR THE TREATMENT OF PAIN” (priority 2006, published 2008).

“Also recorded” adds a separate entry of the source.

Assay [1] relates to postoperative pain model in adult male rats. In words: Postincisional hypersensitivity model (paw incision, withdrawal threshold to von Frey filaments). Particulars: intrathecal (i.t.), 24 h after paw incision. Type of assay: in vivo, rat. The method, then:
Animal preparation: Following Animal Care and Use Committee approval, an intrathecal (i.t.) catheter with tip in the lumbar space is inserted as previously described in adult male rats weighing 250 g (Yaksh and Rudy, Physiol Behav. 1976, 7, 1032-1036). One week following the insertion of the i.t. catheter, paw incision surgery is performed as previously described (Brennan et al., Pain 1996, 64, 493-501). Briefly, animals are anesthetized with halothane, and a 1-cm long incision is made in the plantar aspect of the left hind paw starting 0.5 cm from the edge of the heel toward the toe after sterile preparation with 70% ethanol. The plantaris muscle is elevated and incised longitudinally. The wound is closed with 2 mattress sutures of 5.0 silk. Subsequently, withdrawal threshold to von Frey filaments is determined one day after surgery (Chaplan et al., J. Neurosci. Methods, 1994, 53, 55-63). For all testing but pilot dose ranging studies, investigators are blinded to study drug administration. A cut off value of 22 g is used. […]
Single drug injection: For single drug administration, a volume containing 5 μL drug is used, followed by 10 μL of saline. […] Dose response curves are first constructed, and ED40 values for single drugs are then determined at the time of peak effect.
Drug interaction: For the combination of T-62 with morphine and NBQX, two injections are performed since the time of peak effect for morphine and NBQX is 30 min earlier than that of T-62 (T-62 is injected 30 min before drug injections). Paw withdrawal thresholds are determined before surgery, before drug injection, and 30, 60, 90, 120, 150, 180, and 210 min after the second drug injection. […] The dose response curves are then constructed for the combined drugs, and the ED40 values of the combined drugs are calculated at the time point of peak effect. […]
Data analysis: Data are presented as mean ±S.E. Withdrawal threshold data are analyzed by two-way analysis of variance followed by Fisher's LSD test. […] Isobolograms are statistically analyzed by student T test.

Assay [2] relates to neuropathic pain model in male Sprague-Dawley rats. In words: Neuropathic pain model (Chung model, spinal nerve ligation, von Frey withdrawal threshold). The note with it: Chung model of chronic neuropathic pain, FIG. 8. Format: in vivo, rat. The source says: Spinal Nerve Ligation: After Animal Care and Use Committee approval, male Sprague-Dawley rats (Harlan, Indianapolis, Ind., USA) weighing 180-200 g undergo anesthesia as previously described by Kim and Chung (Pain 1992, 50, 355-363). Briefly, under general anesthesia with inhalational halothane, the left L5 and L6 spinal nerves are identified through a small laminotomy and tightly ligated. Approximately one week later, an intrathecal catheter is placed under general anesthesia by insertion under direct vision of a polyethylene catheter through a small slit in the dura at the cisterna magnum, and advanced 8.5 cm such that the catheter tip resides in the lower lumbar intrathecal space. Animals are studied approximately one week later. Ligation of the lumbar spinal nerves results in a primarily unilateral increase in the sensitivity to light touch on the operated side. Sensitivity is assessed via application of calibrated von Frey filaments. The withdrawal threshold is determined using an up down method as previously described by Chaplan et al. (J. Neurosci. Methods 1994, 53, 55-63).
Experimental Design: Animals receive, at least 4 weeks after spinal nerve ligation surgery, and at least 1 week after intrathecal catheter insertion, single injections of vehicle (β-cyclodextrin) or the drug substance, using a randomized and blinded protocol. Withdrawal thresholds are determined at intervals for up to 20 hr after injection.

The test system of assay [3] is inflammatory and neuropathic pain. The note with it: previously demonstrated (Li et al. 2003, Li et al. 2002, Pan et al. 2001); cited from earlier work.

On to `CN1CC[C@]23c4c5ccc(O)c4O[C@H]2[C@@H](O)C=C[C@H]3[C@H]1C5` [Morphine, morphine, reference compound], for which the “anti-hypersensitivity effect (mechanical hypersensitivity)” value (from here on “anti-hypersensitivity effect”) in assay [1] is “reduces mechanical hypersensitivity in a time and dose dependent manner”.

Take `NS(=O)(=O)c1cccc2c1c([N+](=O)[O-])cc1nc(O)c(O)nc12` [NBQX, 2,3-dihydroxy-6-nitro-7-sulfamoylbenzo(f)quinoxaline, reference compound]: the “anti-hypersensitivity effect” value in assay [1] was “reduces the mechanical hypersensitivity in a time and dose dependent manner”.

`Nc1sc2c(c1C(=O)c1ccc(Cl)cc1)CCCC2` [T-62, (2-amino-4,5,6,7-tetrahydrobenzo[b]thiophen-3-yl)(4-chlorophenyl)methanone]: the “anti-hypersensitivity effect” value in assay [1] is “reduced mechanical hypersensitivity in a time dependent manner; also recorded: modest effect”. For the same compound, the anti-allodynic effect entry in assay [2] is recorded as “dose-dependent anti-allodynic effects”. The “effect on inflammatory and neuropathic pain” value in assay [3] was “reduce inflammatory and neuropathic pain”.

Regarding `Nc1sc2c(c1C(=O)c1ccccc1)CCS2` [formula (Ib)], in assay [2], the anti-allodynic effect result is recorded as “dose-dependent anti-allodynic effects”.

On to `Nc1sc2c(c1C(=O)c1cccc3ccccc13)CCC2` [formula (Ic)], for which, in assay [2], the anti-allodynic effect entry was “dose-dependent anti-allodynic effects” and the “relative potency among the three enhancers” value is recorded as “most potent enhancer of the three agents”.
